Data taken from ChEMBL document CHEMBL1201862, “PubChem BioAssay data set” (2004).
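All cell lines were grown in 96-well plates and treated with compound for 48 hours. At the GI50, growth is halved.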 Calls of active or inactive are those of the source. Cut-off read from the data, not from the text of the source: active = GI50 up to about 1.1 µM and inactive = higher.

What was measured:
Experiment in all cases: NCI tumour cell line growth inhibition, 48 h
[1] = system: M19-MEL
[2] = system: RXF 631
[3] = system: XF498
[4] = system: DMS-273
[5] = system: LXFL 529
[6] = system: KM-20L2
[7] = system: DMS-114
[8] = system: SNB-78
[9] = system: HOP-18

SMILES | GI50 [1] | GI50 [2] | GI50 [3] | GI50 [4] | GI50 [5] | GI50 [6] | GI50 [7] | GI50 [8] | GI50 [9]
CCOC(=O)N[C@H]1CCc2cc(O)c(OC)c(OC)c2-c2ccc(SC)c(=O)cc21 | 0.0189 µM (active) | 0.0207 µM (active) | 0.0261 µM (active) | 0.0149 µM (active) | < 0.0122 µM (active) | 0.0128 µM (active) | 0.0193 µM (active) | < 0.01 µM (active) | –
COC(=O)C(C(=O)C(=O)Nc1nc2ccc(OC)cc2s1)c1cnc2ccccc2n1 (stereo not drawn) | > 100 µM (inactive) | – | > 100 µM (inactive) | – | > 100 µM (inactive) | > 100 µM (inactive) | – | > 100 µM (inactive) | –
CN1CCN(CCSC2Cc3cc(Cl)ccc3Sc3ccccc32)CC1 (stereo not drawn) | 2.13 µM (inactive) | – | 3.03 µM (inactive) | 2.1 µM (inactive) | 2.89 µM (inactive) | 1.74 µM (inactive) | 4.9 µM (inactive) | – | 9.1 µM (inactive)
CCOc1ccc(NC2=NC(=O)C(CC(=O)Nc3ccc(Cl)cc3Cl)S2)cc1 (stereo not drawn) | > 100 µM (inactive) | > 100 µM (inactive) | > 100 µM (inactive) | > 100 µM (inactive) | > 100 µM (inactive) | > 100 µM (inactive) | > 100 µM (inactive) | > 100 µM (inactive) | –
Cn1c2c(cc(-c3ccccc3)c1=O)COc1ccccc1-2 | 25.6 µM (inactive) | – | 8.04 µM (inactive) | 19.5 µM (inactive) | 31.4 µM (inactive) | 25.1 µM (inactive) | 15.4 µM (inactive) | 33.7 µM (inactive) | > 100 µM (inactive)
O=C(Nc1nc2ncn(CCNCCn3cnc4nc(NC(=O)c5ccccc5)[nH]c(=O)c43)c2c(=O)[nH]1)c1ccccc1 | > 100 µM (inactive) | – | > 100 µM (inactive) | > 100 µM (inactive) | > 100 µM (inactive) | > 100 µM (inactive) | – | > 100 µM (inactive) | > 100 µM (inactive)
CCCCOC(=O)NC(=O)c1cn(CCSCCOC(=O)NCCCCCCNC(=O)OCCSCCn2cc(C(=O)NC(=O)OCCCC)c(=O)[nH]c2=O)c(=O)[nH]c1=O | > 100 µM (inactive) | 38.4 µM (inactive) | – | 95.5 µM (inactive) | 27 µM (inactive) | > 100 µM (inactive) | 93.8 µM (inactive) | 90.4 µM (inactive) | 31.6 µM (inactive)
COc1ccc(CC#N)c(OCc2ccccc2)c1 | 29.3 µM (inactive) | – | – | 49.4 µM (inactive) | 20.2 µM (inactive) | 31.3 µM (inactive) | 30.8 µM (inactive) | – | 14.2 µM (inactive)
FC(F)(F)c1ccccc1C1SCc2nc3ccccc3n21 (stereo not drawn) | 43.3 µM (inactive) | – | – | 38 µM (inactive) | 99.8 µM (inactive) | – | 33 µM (inactive) | > 100 µM (inactive) | > 100 µM (inactive)
COc1ccc(NC(=O)C(=O)C2CNC(=O)NC2=O)c(OC)c1 (stereo not drawn) | – | – | > 100 µM (inactive) | > 100 µM (inactive) | > 100 µM (inactive) | > 100 µM (inactive) | > 100 µM (inactive) | > 100 µM (inactive) | > 100 µM (inactive)
COc1cc2ccc(CC(=O)O)cc2cc1OC | > 100 µM (inactive) | > 100 µM (inactive) | – | > 100 µM (inactive) | > 100 µM (inactive) | > 100 µM (inactive) | > 100 µM (inactive) | > 100 µM (inactive) | > 100 µM (inactive)
COC(=O)[C@@]12CC(C(C)C)[C@H]3CC(C(=O)C=C1OC)[C@H]32 (stereo partly drawn) | > 100 µM (inactive) | > 100 µM (inactive) | > 100 µM (inactive) | > 100 µM (inactive) | > 100 µM (inactive) | > 100 µM (inactive) | > 100 µM (inactive) | > 100 µM (inactive) | > 100 µM (inactive)
CN(C)CCC(=O)N1C/C(=C\c2ccc(Cl)c(Cl)c2)C(=O)/C(=C/c2ccc(Cl)c(Cl)c2)C1 | 0.427 µM (active) | 0.455 µM (active) | 1.12 µM (active) | 0.15 µM (active) | 0.211 µM (active) | 0.577 µM (active) | 0.452 µM (active) | 0.476 µM (active) | 1.02 µM (active)
Cc1ccc(C(=O)c2nnc(C(=O)c3ccc(C)cc3)nn2)cc1 | 26.1 µM (inactive) | – | – | 39.4 µM (inactive) | 53.2 µM (inactive) | 65.9 µM (inactive) | – | > 100 µM (inactive) | 33.4 µM (inactive)
O=[N+]([O-])c1cccc(C2=NN(c3ccccc3)C3c4cc(Br)ccc4OCC23)c1 (stereo not drawn) | > 100 µM (inactive) | – | > 100 µM (inactive) | > 100 µM (inactive) | > 100 µM (inactive) | > 100 µM (inactive) | > 100 µM (inactive) | > 100 µM (inactive) | > 100 µM (inactive)
Cc1ccc(C(=O)N(C2CCCCC2)C2CCCCC2)cc1/N=N/N(C)C | 19.1 µM (inactive) | – | – | 17.1 µM (inactive) | 14.6 µM (inactive) | – | – | 15.8 µM (inactive) | –
O=C(O)c1ccc(/N=N/c2cc(S(=O)(=O)O)c3cccnc3c2O)cc1 | > 100 µM (inactive) | – | > 100 µM (inactive) | > 100 µM (inactive) | – | > 100 µM (inactive) | > 100 µM (inactive) | > 100 µM (inactive) | –
Cc1ccc(-c2c(N)nc(NC#N)nc2CCC(=O)Nc2ccccc2[N+](=O)[O-])cc1 | > 100 µM (inactive) | – | – | > 100 µM (inactive) | > 100 µM (inactive) | > 100 µM (inactive) | > 100 µM (inactive) | > 100 µM (inactive) | > 100 µM (inactive)
CN(C)c1snc2c1c(=O)n(C)c(=O)n2C | > 100 µM (inactive) | > 100 µM (inactive) | > 100 µM (inactive) | > 100 µM (inactive) | > 100 µM (inactive) | > 100 µM (inactive) | > 100 µM (inactive) | – | > 100 µM (inactive)
CCOC(=O)N1c2c(ccn2C)-c2ccn(C)c2N1C(=O)OCC | 26.4 µM (inactive) | 18.9 µM (inactive) | 17 µM (inactive) | – | 17.2 µM (inactive) | 14.6 µM (inactive) | > 10 µM (inactive) | – | –
NC(=O)c1cc(C2OC(CO)C(O)C2O)nn1-c1ccc([N+](=O)[O-])cc1 (stereo not drawn) | – | – | > 100 µM (inactive) | > 100 µM (inactive) | > 100 µM (inactive) | > 100 µM (inactive) | > 100 µM (inactive) | 36.7 µM (inactive) | > 100 µM (inactive)
N=CCCN(CCC=N)c1ccc(/C=C2\CN(NC(=O)c3ccc(Cl)cc3)C(c3ccccc3)=N2)cc1 | – | > 100 µM (inactive) | – | > 100 µM (inactive) | > 100 µM (inactive) | > 100 µM (inactive) | > 100 µM (inactive) | > 100 µM (inactive) | > 100 µM (inactive)
CC(=O)C1=CCC2c3[nH]c4ccccc4c3CCN2C1 (stereo not drawn) | > 100 µM (inactive) | 45.4 µM (inactive) | 62.5 µM (inactive) | 34.5 µM (inactive) | 66.8 µM (inactive) | 21 µM (inactive) | – | 32.1 µM (inactive) | > 100 µM (inactive)
O=C(O)CN(c1ccccc1)S(=O)(=O)c1ccc(Cl)cc1 | > 100 µM (inactive) | > 100 µM (inactive) | – | > 100 µM (inactive) | > 100 µM (inactive) | > 100 µM (inactive) | – | – | > 100 µM (inactive)
O=C(N[C@H](CO)[C@H](O)c1ccc([N+](=O)[O-])cc1)C(Cl)Cl [CHLORAMPHENICOL] | > 100 µM (inactive) | – | – | > 100 µM (inactive) | > 100 µM (inactive) | > 100 µM (inactive) | > 100 µM (inactive) | – | –
CN(C)/N=N/c1[nH]cnc1C(N)=O [DACARBAZINE] | 64.4 µM (inactive) | 54.1 µM (inactive) | 21.8 µM (inactive) | 12.8 µM (inactive) | 98.2 µM (inactive) | 53.6 µM (inactive) | 71.3 µM (inactive) | 63.2 µM (inactive) | 15.5 µM (inactive)
C[C@@H]1O[C@@H](O[C@H]2[C@H](Oc3cc(O)c4c(=O)cc(-c5ccc(O)cc5)oc4c3)O[C@H](CO)[C@@H](O)[C@@H]2O)[C@H](O)[C@H](O)[C@H]1O [RHOIFOLIN] | > 100 µM (inactive) | – | > 100 µM (inactive) | > 100 µM (inactive) | > 100 µM (inactive) | > 100 µM (inactive) | > 100 µM (inactive) | > 100 µM (inactive) | > 100 µM (inactive)
O=C(O)CS [THIOGLYCOLIC ACID] | > 100 µM (inactive) | – | > 100 µM (inactive) | > 100 µM (inactive) | > 100 µM (inactive) | > 100 µM (inactive) | > 100 µM (inactive) | > 100 µM (inactive) | –
